Experimental data: patent publication US20240139229A1, “TREATMENT FOR AORTOPATHY” (UNIVERSITY OF KENTUCKY RESEARCH FOUNDATION, priority 2021, published 2024)

Tested on: BAPN-induced aortic aneurysm and dissection
Test: Disulfiram in BAPN-induced aortopathy mouse model, survival
Assay type: in vivo
Details: male C57BL/6J mice, 3 weeks old, BAPN 0.5% wt/vol in drinking water for 28 days, disulfiram 10 mg/mL in sesame oil, daily I.P. 100 μL per 20 g body weight, day -1 to 27, compared to vehicle
Experimental: For the evaluation, an animal model of aortic aneurysm as described above was used to evaluate effects of disulfiram on aortic aneurysm/aortopathy. The model comprised administration of BAPN, i.e., BAPN-induced aortopathy in a mouse model. Specifics of induction of hypercholesteremia and administration of BAPN were substantially as described supra. Male C57BL/6J mice at 3 weeks old were administered beta-aminopropionitrile (BAPN, 0.5% wt/vol) in drinking water for 28 days to induce aortic aneurysm and dissection.
The mice were separated randomly into two groups: control and treatment. For the control group, sesame oil was administered daily via intraperitoneal (I.P.) injection at 100 μL per 20 g body weight from day −1 to 27 (day −1 is the day before the first day of BAPN administration). Simultaneously, for treatment group, disulfiram at 10 mg/mL in sesame oil was administered daily via I.P. injection at 100 μL per 20 g body weight. Animal survival was monitored for 28 days during BAPN administration.

For CCN(CC)C(=S)SSC(=S)N(CC)CC [disulfiram, tetraethyldisulfanedicarbothioamide], the Animal survival was “statistically significant increases in days of survival” and the Animal survival (listed as Disulfiram) was “protects against death from aortopathy”.
